Test results published in patent US20150307520A1, “NOVEL HETEROARYL AND HETEROCYCLE COMPOUNDS, COMPOSITIONS AND METHODS THEREOF” (HUTCHISON MEDIPHARMA LIMITED, priority 2012, published 2015).

How the values were obtained:
Format in all cases: biochemical
[1] = molecular target: p110γ (Homo sapiens, UniProt P48736); assay: Transcreener KINASE Assay, kinase inhibition of p110γ; conditions: for PI3Kγ IH % @ 1 uM: 1 uM test compound; for IC50: read-out: PI3Kγ IC50
Procedure, shortened: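 Steps: enzyme reaction with compound, 80 min at room temperature; add ADP detection reagent, incubate 60 min at room temperature; read fluorescence polarization. Inhibition and IC50 values are derived from the ADP signal.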

[2] = molecular target: p110β/p85α (Homo sapiens, UniProt P42338); assay: Transcreener KINASE Assay, kinase inhibition of p110β/p85α; conditions: for PI3Kβ IH % @ 1 uM: 1 uM test compound
Chain of p110β/p85α (P42338 whole entry): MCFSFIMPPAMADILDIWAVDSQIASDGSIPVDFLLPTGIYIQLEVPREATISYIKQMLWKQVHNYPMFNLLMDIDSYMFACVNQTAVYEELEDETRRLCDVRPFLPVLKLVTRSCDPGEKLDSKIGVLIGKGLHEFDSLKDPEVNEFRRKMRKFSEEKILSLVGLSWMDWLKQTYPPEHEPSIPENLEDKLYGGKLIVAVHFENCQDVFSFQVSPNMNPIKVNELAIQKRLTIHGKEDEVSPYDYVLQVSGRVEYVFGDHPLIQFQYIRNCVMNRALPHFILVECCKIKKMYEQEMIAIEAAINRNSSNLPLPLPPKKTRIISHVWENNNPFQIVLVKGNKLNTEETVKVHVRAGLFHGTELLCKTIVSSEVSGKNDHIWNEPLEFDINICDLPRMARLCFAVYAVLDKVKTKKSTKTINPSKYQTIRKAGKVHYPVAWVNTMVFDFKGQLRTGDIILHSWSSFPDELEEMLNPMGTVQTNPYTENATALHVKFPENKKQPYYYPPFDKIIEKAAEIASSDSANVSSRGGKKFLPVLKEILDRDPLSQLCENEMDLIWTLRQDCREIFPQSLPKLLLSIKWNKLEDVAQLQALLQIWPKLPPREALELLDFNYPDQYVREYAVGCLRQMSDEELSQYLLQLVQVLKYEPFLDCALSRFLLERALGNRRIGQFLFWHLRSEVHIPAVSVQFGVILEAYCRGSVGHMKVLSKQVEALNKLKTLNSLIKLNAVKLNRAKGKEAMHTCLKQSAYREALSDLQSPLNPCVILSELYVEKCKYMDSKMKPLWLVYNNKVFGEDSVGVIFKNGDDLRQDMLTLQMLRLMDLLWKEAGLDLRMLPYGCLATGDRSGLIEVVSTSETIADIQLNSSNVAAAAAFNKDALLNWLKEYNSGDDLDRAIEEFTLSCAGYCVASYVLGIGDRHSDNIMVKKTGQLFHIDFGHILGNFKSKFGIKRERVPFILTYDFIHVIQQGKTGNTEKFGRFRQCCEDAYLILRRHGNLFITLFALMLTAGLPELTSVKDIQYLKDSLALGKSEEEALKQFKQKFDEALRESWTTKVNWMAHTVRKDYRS
Chain of p110β/p85α (P27986 2-724 partner): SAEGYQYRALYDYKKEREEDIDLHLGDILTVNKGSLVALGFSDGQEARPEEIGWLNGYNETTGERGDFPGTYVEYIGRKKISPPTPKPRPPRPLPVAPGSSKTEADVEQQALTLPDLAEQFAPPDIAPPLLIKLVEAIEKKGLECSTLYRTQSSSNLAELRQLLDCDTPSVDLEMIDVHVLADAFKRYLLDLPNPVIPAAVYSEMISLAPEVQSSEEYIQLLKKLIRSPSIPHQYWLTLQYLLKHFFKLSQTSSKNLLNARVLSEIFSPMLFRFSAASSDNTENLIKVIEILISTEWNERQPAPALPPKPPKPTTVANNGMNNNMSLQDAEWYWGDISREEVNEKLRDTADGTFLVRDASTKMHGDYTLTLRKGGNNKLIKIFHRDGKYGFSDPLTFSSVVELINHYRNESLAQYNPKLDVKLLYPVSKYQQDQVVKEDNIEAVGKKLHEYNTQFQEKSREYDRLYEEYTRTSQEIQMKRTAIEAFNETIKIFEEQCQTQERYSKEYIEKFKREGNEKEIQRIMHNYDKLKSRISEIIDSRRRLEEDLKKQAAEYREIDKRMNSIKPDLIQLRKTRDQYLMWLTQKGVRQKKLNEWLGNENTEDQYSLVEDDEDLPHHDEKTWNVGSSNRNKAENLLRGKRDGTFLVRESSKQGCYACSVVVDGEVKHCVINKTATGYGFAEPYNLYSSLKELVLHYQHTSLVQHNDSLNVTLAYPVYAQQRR
Procedure, shortened: (§1)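 Recombinant PI3K/p85α heterodimers were incubated with compound (2% DMSO final) for 80 min at room temperature in 50 mM HEPES, 100 mM NaCl, 1 mM EGTA, 0.03% CHAPS, 3 mM MgCl2, 1 mM DTT, with substrate added as a 30 uM PIP2/10 uM ATP mix. ADP was detected by competitive fluorescence polarization immunoassay.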

[3] = molecular target: p110δ/p85α (Homo sapiens, UniProt O00329); assay: Transcreener KINASE Assay, kinase inhibition of p110δ/p85α; conditions: for PI3Kδ IH % @ 1 uM: 1 uM test compound; for IC50: read-out: PI3Kδ IC50
Chain of p110δ/p85α (O00329 whole entry): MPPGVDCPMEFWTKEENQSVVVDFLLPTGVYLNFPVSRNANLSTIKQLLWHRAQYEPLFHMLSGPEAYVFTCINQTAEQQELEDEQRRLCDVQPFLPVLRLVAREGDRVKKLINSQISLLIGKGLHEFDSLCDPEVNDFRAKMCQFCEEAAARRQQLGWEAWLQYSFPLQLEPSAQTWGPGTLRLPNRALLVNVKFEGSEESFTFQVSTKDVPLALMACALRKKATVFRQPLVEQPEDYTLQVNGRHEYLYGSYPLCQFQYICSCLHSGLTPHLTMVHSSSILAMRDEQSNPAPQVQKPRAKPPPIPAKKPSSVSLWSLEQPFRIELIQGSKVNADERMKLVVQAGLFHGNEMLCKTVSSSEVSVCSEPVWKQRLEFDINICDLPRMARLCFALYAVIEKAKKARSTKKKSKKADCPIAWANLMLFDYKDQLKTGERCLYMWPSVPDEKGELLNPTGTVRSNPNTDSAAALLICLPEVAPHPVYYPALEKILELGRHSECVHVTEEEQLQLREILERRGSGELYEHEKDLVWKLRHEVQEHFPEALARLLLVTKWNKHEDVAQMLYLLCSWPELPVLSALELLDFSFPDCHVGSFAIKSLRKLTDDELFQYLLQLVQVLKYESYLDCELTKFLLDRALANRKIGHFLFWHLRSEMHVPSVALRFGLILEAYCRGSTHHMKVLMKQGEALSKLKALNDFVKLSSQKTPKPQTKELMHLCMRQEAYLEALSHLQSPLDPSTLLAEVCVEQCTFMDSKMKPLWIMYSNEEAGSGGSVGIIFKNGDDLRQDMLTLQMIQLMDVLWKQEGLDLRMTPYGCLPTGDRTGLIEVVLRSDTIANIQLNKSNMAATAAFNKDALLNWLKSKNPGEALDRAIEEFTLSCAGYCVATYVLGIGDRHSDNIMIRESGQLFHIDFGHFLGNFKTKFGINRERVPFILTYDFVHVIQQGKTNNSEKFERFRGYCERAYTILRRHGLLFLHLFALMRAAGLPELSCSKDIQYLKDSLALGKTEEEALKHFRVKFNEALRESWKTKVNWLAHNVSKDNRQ
Chain of p110δ/p85α (P27986 whole entry partner): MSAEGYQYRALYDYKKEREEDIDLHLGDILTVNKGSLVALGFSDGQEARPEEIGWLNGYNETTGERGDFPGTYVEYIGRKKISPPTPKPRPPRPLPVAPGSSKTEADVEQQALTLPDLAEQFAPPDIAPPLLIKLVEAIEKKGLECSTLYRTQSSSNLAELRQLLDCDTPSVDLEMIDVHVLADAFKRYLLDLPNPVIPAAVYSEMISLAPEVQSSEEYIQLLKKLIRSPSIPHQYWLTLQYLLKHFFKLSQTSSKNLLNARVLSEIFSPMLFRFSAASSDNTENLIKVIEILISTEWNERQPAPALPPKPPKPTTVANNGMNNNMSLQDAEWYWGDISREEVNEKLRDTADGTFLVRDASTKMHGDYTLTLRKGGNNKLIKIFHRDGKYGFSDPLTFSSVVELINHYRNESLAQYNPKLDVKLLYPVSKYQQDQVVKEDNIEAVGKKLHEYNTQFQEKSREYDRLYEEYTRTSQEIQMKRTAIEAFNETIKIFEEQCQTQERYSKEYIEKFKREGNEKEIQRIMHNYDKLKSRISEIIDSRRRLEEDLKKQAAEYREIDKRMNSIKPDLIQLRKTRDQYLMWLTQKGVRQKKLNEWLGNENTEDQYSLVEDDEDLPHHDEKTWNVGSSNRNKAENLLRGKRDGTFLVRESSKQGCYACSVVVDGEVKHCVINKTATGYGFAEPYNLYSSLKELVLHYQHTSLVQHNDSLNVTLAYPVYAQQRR
Procedure, shortened: as §1

Chain of p110γ (P48736 whole entry): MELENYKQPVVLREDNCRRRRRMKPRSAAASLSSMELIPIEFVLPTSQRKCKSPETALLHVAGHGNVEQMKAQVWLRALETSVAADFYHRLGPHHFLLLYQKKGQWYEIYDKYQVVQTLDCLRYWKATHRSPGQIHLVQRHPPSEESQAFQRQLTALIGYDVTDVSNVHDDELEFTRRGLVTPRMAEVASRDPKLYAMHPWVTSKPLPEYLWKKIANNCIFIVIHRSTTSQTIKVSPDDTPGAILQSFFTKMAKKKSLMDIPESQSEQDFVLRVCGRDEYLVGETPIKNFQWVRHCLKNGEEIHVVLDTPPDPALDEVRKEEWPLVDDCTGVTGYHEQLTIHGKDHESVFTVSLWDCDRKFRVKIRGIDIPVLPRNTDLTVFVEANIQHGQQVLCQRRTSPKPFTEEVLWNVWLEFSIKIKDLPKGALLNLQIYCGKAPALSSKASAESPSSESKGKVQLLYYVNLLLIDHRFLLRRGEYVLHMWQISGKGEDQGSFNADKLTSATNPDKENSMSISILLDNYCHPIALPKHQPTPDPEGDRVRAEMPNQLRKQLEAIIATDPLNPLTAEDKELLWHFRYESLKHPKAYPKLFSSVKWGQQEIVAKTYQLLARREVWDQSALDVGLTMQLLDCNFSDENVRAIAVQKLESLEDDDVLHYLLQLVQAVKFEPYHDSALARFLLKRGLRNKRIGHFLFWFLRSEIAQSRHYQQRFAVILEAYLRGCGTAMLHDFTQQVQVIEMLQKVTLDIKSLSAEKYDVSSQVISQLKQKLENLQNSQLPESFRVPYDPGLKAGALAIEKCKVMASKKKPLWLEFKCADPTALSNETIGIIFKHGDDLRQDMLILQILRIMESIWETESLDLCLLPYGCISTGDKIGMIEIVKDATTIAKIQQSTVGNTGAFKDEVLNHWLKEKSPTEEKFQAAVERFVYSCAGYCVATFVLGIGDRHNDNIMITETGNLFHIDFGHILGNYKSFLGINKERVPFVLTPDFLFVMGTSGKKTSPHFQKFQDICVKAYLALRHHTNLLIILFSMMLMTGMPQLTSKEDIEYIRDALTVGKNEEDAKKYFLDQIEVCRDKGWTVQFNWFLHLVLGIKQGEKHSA

Structure (SMILES)	PI3Kγ IH % @ 1 uM [1] [%]	PI3Kβ IH % @ 1 uM [2] [%]	PI3Kδ IH % @ 1 uM [3] [%]	IC50 [3] [nM]	IC50 [1] [nM]	IC50 ([2]; read-out: PI3Kβ IC50) [nM]
CCc1ccn2nc([C@@H]3CCN3c3ncnc4[nH]cc(C#N)c34)n(-c3ccccc3)c(=O)c12 [Compound 133, (S)-4-(2-(5-ethyl-4-oxo-3-phenyl-3,4-dihydropyrrolo[2,1-f][1,2,4]triazin-2-yl)azetidin-1-yl)-7H-pyrrolo[2,3-d]pyrimidine-5-carbonitrile]	65.9	11.5	88.1	172		
Nc1nc(N2CCC[C@H]2c2nn3ccc(Cl)c3c(=O)n2-c2ccccc2)n2nccc2n1 [Compound 134, (S)-2-(1-(2-aminopyrazolo[1,5-a][1,3,5]triazin-4-yl)pyrrolidin-2-yl)-5-chloro-3-phenylpyrrolo[2,1-f][1,2,4]triazin-4(3H)-one]	>100	59.2	>100	5	30	
Nc1nc(N2CC[C@H]2c2nn3ccc(Br)c3c(=O)n2-c2ccccc2)n2nccc2n1 [Compound 135]	>100	20.6	74.5	51	12	
Nc1nc(N2CC(F)(F)C[C@H]2c2nn3ccc(Cl)c3c(=O)n2-c2ccccc2)n2nccc2n1 [Compound 136]	95.0	27.6	83.5	124	42	
Nc1nc(N2CC[C@H]2c2nn3ccc(Cl)c3c(=O)n2-c2ccccc2)n2nccc2n1 [Compound 137]	89.3	35.9	96.8	36	13	
Nc1ncnc(N2CCC[C@H]2c2nn3ccc(Cl)c3c(=O)n2-c2ccccc2)n1 [Compound 138, (S)-2-(1-(4-amino-1,3,5-triazin-2-yl)pyrrolidin-2-yl)-5-chloro-3-phenylpyrrolo[2,1-f][1,2,4]triazin-4(3H)-one]	95.0	42.3	>100	12	75	
NC(=O)c1ccn2nc([C@@H]3CCCN3c3ncnc4[nH]cnc34)n(-c3ccccc3)c(=O)c12 [Compound 139, (S)-2-(1-(9H-purin-6-yl)pyrrolidin-2-yl)-4-oxo-3-phenyl-3,4-dihydropyrrolo[2,1-f][1,2,4]triazine-5-carboxamide]	46.5	18.0	64.8			
N#Cc1c[nH]c2ncnc(N3CCC[C@H]3c3nn4ccc(C(N)=O)c4c(=O)n3-c3ccccc3)c12 [Compound 140]	82.3	15.0	>100	51	116	
N#Cc1c(N)ncnc1N1CC(F)(F)C[C@H]1c1nn2ccc(Cl)c2c(=O)n1-c1ccccc1 [Compound 141]	92.3	28.2	>100	5	151	
O=c1c2c(Cl)ccn2nc([C@@H]2CCN2c2ncnc3[nH]ccc23)n1-c1ccccc1 [Compound 142]	75.5	13.5	81.1	298	390	
CS(=O)(=O)c1c[nH]c2ncnc(N3CC[C@H]3c3nn4ccc(Cl)c4c(=O)n3-c3ccccc3)c12 [Compound 143]	82.3	63.0	88.8	70	95	
CS(=O)(=O)c1c[nH]c2ncnc(N3CCC[C@H]3c3nn4ccc(Cl)c4c(=O)n3-c3ccccc3)c12 [Compound 144]	94.1	62.5	>100	5	44	
O=c1c2c(Cl)ccn2nc([C@@H]2CCCN2c2ncnc3[nH]ccc23)n1-c1ccccc1 [Compound 145]	>100	55.5	>100	2	9	
O=c1c2c(Cl)ccn2nc([C@@H]2CCCN2c2nc(F)nc3[nH]cnc23)n1-c1ccccc1 [Compound 146]	97.3	77.9	>100	1	9	120
O=c1c2c(Cl)ccn2nc([C@@H]2CCCN2c2ncnc3[nH]cc(F)c23)n1-c1ccccc1 [Compound 147]	94.3	65.3	>100	1	4	
O=c1c2c(Cl)ccn2nc([C@@H]2CCN2c2ncnc3[nH]cc(F)c23)n1-c1ccccc1 [Compound 148]	83.0	19.5	86.7	44	173	
COCc1ccn2nc([C@@H]3CCCN3c3ncnc4[nH]cnc34)n(-c3ccccc3)c(=O)c12 [Compound 149]	74.2	−35.9	95.9	52	348	
COCc1ccn2nc([C@@H]3CCCN3c3ncnc4[nH]cc(C#N)c34)n(-c3ccccc3)c(=O)c12 [Compound 150]	92.6	31.5	>100	3	92	
COCc1ccn2nc([C@@H]3CCCN3c3nc(N)ncc3C(F)(F)F)n(-c3ccccc3)c(=O)c12 [Compound 151]	22.8	11.4	52.4			
N#Cc1c[nH]c2ncnc(N3CCOCC3c3nn4ccc(Cl)c4c(=O)n3-c3ccccc3)c12 (stereo not shown) [Compound 152]	79.3	54.4	99.2	5	287	
O=c1c2c(Cl)ccn2nc([C@@H]2COCCN2c2ncnc3[nH]cnc23)n1-c1ccccc1 [Compound 153]	85.8	56.5	>100			
CC(Nc1nc(N)ncc1C(F)(F)F)c1cc2ncc(Cl)n2c(=O)n1-c1ccccc1 (stereo not shown) [Compound 154]	93.7	56.7	97.6	3	40	
N#Cc1c[nH]c2ncnc(N3CCC[C@H]3c3nn4ccc(Cl)c4c(=O)n3Cc3ncccn3)c12 [Compound 155]	94.9	56.0	96.4	23	133	
O=c1c2c(Cl)ccn2nc([C@@H]2CCCN2c2ncnc3[nH]cnc23)n1Cc1ncccn1 [Compound 156]	64.0	42.2	83.4	169		
O=c1c2c(Cl)ccn2nc([C@@H]2C[C@H](F)CN2c2ncnc3[nH]cnc23)n1Cc1ccccn1 [Compound 157]	79.9	39.5	>100	21	280	
